In US20240252508A1, “Novel glucose uptake inhibitors for use in the treatment of cancer” (NOVELYEAST BV, priority 2021, published 2024):
Like-named read-outs stand apart in the source and are kept apart here.

What was measured:
[1] = test system: HXK2 hxk1Δ glk1Δ, hxk2Δ hxk1Δ glk1Δ and hxk2Δ hxk1Δ GLK1 cells; assay: Sugar uptake in yeast strains with and without hexokinase activity; format: cell-based, S. cerevisiae; conditions: for inhibition at 50 µM: Saccharomyces cerevisiae
Protocol: Zero-trans uptake of radioactively labeled [U-^14C]glucose, [U-^14C]fructose or [U-^14C]galactose by S. cerevisiae cells was determined in accordance with previous studies^44,66. Cells were grown on different carbon sources depending on the experiment. For measuring glucose uptake activity in the tps1Δ and tps1Δ hxtA strains (FIG. 1b,c), cells were grown on YP medium containing 3% glycerol (measurement of 10s). Typically, for compound characterization and kinetic studies in wild type and tps1Δ strains, cells were (pre)grown on Complete Synthetic medium supplemented with 2% galactose (measurement of 10s). In the experiments on the influence of hexokinase activity on the sugar uptake rate, the measurement duration was shortened to 5s and cells were always grown on YP medium containing 3% glycerol and 2% ethanol. After harvesting, cells were washed twice with ice-cold 25 mM MES-buffer pH 6, and resuspended in their respective medium without sugar to a final concentration of 45 mg (wet weight)/mL. The amount of added tracer was estimated to give a response close to at least 1000 counts per min in order to adequately counter background noise. Cells were first preincubated for 10 min at 30° C. with the compound to acclimate the cells to the temperature and to allow adequate interaction with the compound prior to uptake. Next, hexose sugar was mixed with the cell suspension, which was then incubated for 5 or 10 s, depending on the experiment, after which the cells were rapidly filtered over a glass microfiber filter (Whatman GF/C) and washed three times with ice-cold dH2O. The loaded filter was transferred to a scintillation vial containing 3 mL liquid scintillation cocktail (Ultima-Flo M, Perkin Elmer) and counted using the Hidex 300 SL. Three blank measurements per strain were typically included to account for background signal, for which the cells were first quenched before adding the radioactive label.

[2] = biological target: T1, yeast Hxt7 carrier (Saccharomyces cerevisiae, UniProt P39004); assay: Glucose uptake by Hxt7 expressed in hxt^0 gal2Δ (RE700A) yeast; format: cell-based, S. cerevisiae
T1 construct: HA (C); expressed in transfected cells; host or cells: S. cerevisiae RE700A (hxt0 gal2Δ) in A5; EBY.VW4000 (hxt0 erg4Δ) in A7; plasmid 'pHXT7'
T1 sequence (P39004 whole entry): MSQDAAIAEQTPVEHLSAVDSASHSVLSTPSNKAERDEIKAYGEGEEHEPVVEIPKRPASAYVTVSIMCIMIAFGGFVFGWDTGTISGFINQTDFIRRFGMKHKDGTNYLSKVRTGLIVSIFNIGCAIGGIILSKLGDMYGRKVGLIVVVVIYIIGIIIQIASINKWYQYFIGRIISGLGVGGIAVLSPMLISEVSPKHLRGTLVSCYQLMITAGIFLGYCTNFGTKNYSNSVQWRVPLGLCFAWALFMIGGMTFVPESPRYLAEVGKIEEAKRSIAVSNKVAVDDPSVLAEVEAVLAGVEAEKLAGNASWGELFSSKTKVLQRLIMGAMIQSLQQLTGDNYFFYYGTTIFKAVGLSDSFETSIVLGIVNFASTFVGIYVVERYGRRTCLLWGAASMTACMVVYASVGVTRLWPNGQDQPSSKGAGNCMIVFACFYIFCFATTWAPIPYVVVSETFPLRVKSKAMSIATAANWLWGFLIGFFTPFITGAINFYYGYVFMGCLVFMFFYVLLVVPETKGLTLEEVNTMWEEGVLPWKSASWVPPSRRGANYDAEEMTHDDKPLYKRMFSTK
From the text: (§1) To assess whether WBC-A could inhibit glucose transport activity of the GLUT carriers, we expressed human GLUT1^V69M and GLUT4^V85M in a hxt^0 gal2Δ (RE700A) and hxt^0 erg4Δ (EBY.VW4000) strain, respectively. These strains are both deficient in glucose uptake due to absence of all active glucose transporters. For functional GLUT expression in yeast, specific mutations had to be introduced in both sequences, whereas for GLUT4, an additional ERG4 gene deletion was required^64,65,66.
(§2) Zero-trans uptake of radioactively labeled [U-^14C]glucose, [U-^14C]fructose or [U-^14C]galactose by S. cerevisiae cells was determined in accordance with previous studies^44,66. Cells were grown on different carbon sources depending on the experiment. For measuring glucose uptake activity in the tps1Δ and tps1Δ hxtA strains (FIG. 1b,c), cells were grown on YP medium containing 3% glycerol (measurement of 10s). Typically, for compound characterization and kinetic studies in wild type and tps1Δ strains, cells were (pre)grown on Complete Synthetic medium supplemented with 2% galactose (measurement of 10s). […] The loaded filter was transferred to a scintillation vial containing 3 mL liquid scintillation cocktail (Ultima-Flo M, Perkin Elmer) and counted using the Hidex 300 SL. […]

[3] = biological target: T2, yeast Hxt7 (Saccharomyces cerevisiae, UniProt P39004); assay: Glucose uptake by Hxt7 expressed in hxt^0 erg4Δ (EBY.VW4000) yeast; format: cell-based, S. cerevisiae
T2 construct: HA (C); expressed in transfected cells; host or cells: S. cerevisiae RE700A (hxt0 gal2Δ) in A5; EBY.VW4000 (hxt0 erg4Δ) in A7; plasmid 'pHXT7'
T2 sequence (P39004 whole entry): as above
From the text: as §1, §2

[4] = test system: hexokinase; assay: In vitro hexokinase activity in extracts of wild type cells; format: biochemical, S. cerevisiae; conditions: 50 μM WBC-A
Protocol: In vitro hexokinase activity was determined as described previously 43, s. As such, cells were first grown to exponential phase on complete Synthetic medium supplemented with 2% galactose. The cells were harvested and washed with ice-cold 25 mM MES buffer pH 6. Subsequently, cells were resuspended in lysis buffer (50 mM HEPES pH 7, 150 mM NaCl, 2.5 mM MgCl2, 5% glycerol and 1% Triton X-100) containing protease inhibitor after which the cells were mechanically lysed. After protein level determination, total protein concentration was diluted to 0.1 mg/mL in reaction buffer (50 mM HEPES pH 7, 150 mM NaCl, 2.5 mM MgCl2, 5% glycerol). For measuring activity, reaction buffer was supplemented with 0.8 mg/mL NADP^+ and 50 μg/mL Glu6P dehydrogenase. After temperature equilibration of the plate at 30° C., the reaction was started by adding both ATP and glucose to the reaction buffer. OD340 was measured using the Synergy H1 Hybrid reader and hexokinase activity was determined based on the linear increase of absorbance in the first 10-20s.

[5] = test system: wild type yeast cells; assay: General toxicity: growth of wild type yeast cells; format: cell-based, S. cerevisiae; conditions: 100 μM
Protocol: Maximal growth rates were determined after 2 days of growth in Complete Synthetic liquid medium.
Growth curves were made by measuring OD595 in a 96-well plate using the Multiskan™ FC Microplate Photometer (Thermo Fisher Scientific). Typically, for tps1Δ rescue experiments (FIG. 2b-e; FIG. 4a), cells were (pre)grown in Complete Synthetic medium containing 2% galactose.
Compounds were always added 10 min prior to glucose addition to ensure maximal interaction between the cells and compounds. Cells originating from the preculture were harvested, washed in medium without sugar, after which they were resuspended to an OD of 0.1 in 200 μL of the appropriate medium. At least three technical replicates were included per condition. OD595 was measured at 30° C. every 30 min with a 10-min shaking interval.

[6] = test system: A549 lung adenocarcinoma cells; assay: Steady-state glucose consumption and lactate production in A549 cells; format: cell-based, human; conditions: 25 μM, 1 mM glucose, 8 h
Protocol: The influence of WBC compounds on the steady-state glucose consumption rate was studied in the A549 adenocarcinoma and KMS-12-PE multiple myeloma cell lines. As such, different parameters needed to be optimized depending on whether cells were adherent or in suspension. As such, A549 cells were incubated at 125,000 cells/well in a 24-well plate in 300 μL RPMI medium for 8 h. For the KMS-12-PE cell line, 100,000 cells/well were incubated in 100 μL RPMI medium in a 96-well plate for 8 h. Medium was collected, spun down and HPLC-analyzed for measuring glucose and lactate levels. Metabolite levels were corrected for cell number, which always varied little over the span of 8 h. For every condition, at least 4 technical repeats were included.

## Cc1nc(Sc2nnc3n2CCCCC3)c2c(-c3cccs3)csc2n1 [WBC-A]
[1]; 50 μM WBC-A
  Fructose uptake at tracer concentration, hxk2Δ hxk1Δ GLK1 cells: little inhibition of fructose uptake
  Glucose uptake at tracer concentration, hxk2Δ hxk1Δ GLK1 cells: strong inhibition of glucose uptake
[1]; 1 mM glucose
  Inhibition of glucose uptake rate, hxk1Δ hxk2Δ glk1Δ strain: little further inhibition
[1]; 1 mM glucose, HXK2 hxk1Δ glk1Δ
  Inhibition of glucose uptake rate, strain expressing active Hxk2: strong reduction in glucose uptake rate
[1]; read-out: Inhibition of fructose transport, strain expressing only GLK1
  inhibition at 50 µM: ~30%
[1]; read-out: Inhibition of fructose transport, strain only expressing HXK2
  inhibition at 50 µM: > 75%
[2]
  IC50: 51 µM
[2]; 25 μM, 2.5 mM glucose, hxt^0 gal2Δ strain
  Inhibition of glucose uptake by Hxt7 at 25 μM: inhibited
[3]
  IC50: 12.9 µM
[4]
  Effect on in vitro hexokinase activity: No significant effect
[5]
  Growth of wild type yeast cells on glucose (2%) and on 3% glycerol+2% ethanol: did not cause any growth inhibition at all
[6]
  Glucose consumption and lactate production in A549 cells: did not cause inhibition
